Consider eight molecules from ChEMBL document CHEMBL4229448 (Bioorg Med Chem Lett, 2018).

By IC50 is commonly meant the point on the concentration scale where inhibition reaches its midpoint. Usually Papp stands for a coefficient for how fast a substance crosses the barrier. Read a low Papp as poor permeation. As a reminder, the half-life is the time in which the quantity being followed falls by half.

Calls of active or inactive are those of the source. No cut-off for these calls is given here.

Data set [1] deals with T1, Cholinesterase (Equus caballus, UniProt P81908). In words: Inhibition of horse serum BuChE using acetylthiocholine as substrate by UV-visible spectrophotometric Ellman's method. On the technique in general: In Ellman's method for cholinesterases, released thiocholine reacts with DTNB.
T1 sequence (P81908 whole entry): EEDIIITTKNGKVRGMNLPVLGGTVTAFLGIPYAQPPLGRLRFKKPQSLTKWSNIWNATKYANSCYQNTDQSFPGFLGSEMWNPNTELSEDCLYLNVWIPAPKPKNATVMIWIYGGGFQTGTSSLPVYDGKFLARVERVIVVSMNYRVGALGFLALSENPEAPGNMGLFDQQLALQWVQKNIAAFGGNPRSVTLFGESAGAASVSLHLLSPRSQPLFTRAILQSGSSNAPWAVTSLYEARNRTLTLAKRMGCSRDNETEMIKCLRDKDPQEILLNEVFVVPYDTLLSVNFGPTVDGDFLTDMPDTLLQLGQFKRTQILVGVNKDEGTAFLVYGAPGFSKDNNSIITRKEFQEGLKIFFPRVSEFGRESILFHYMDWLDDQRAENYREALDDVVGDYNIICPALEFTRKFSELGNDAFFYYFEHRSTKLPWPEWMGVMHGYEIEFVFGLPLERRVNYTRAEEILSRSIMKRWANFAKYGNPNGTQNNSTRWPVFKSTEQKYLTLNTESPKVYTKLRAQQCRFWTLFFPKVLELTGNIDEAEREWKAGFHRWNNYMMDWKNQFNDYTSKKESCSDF
Data set [2] has as its target T2, Acetylcholinesterase (Homo sapiens, UniProt P22303). In words: Inhibition of human recombinant AChE at 0.05 uM using acetylthiocholine as substrate by UV-visible spectrophotometric Ellman's method.
Data set [3] has as its target T2, Acetylcholinesterase. Description: Inhibition of human recombinant AChE using acetylthiocholine as substrate by UV-visible spectrophotometric Ellman's method.
For data set [4], the target named is Cholinesterase (Equus caballus) (UniProt P81908). In words: Inhibition of horse serum BuChE at 0.1 uM using acetylthiocholine as substrate by UV-visible spectrophotometric Ellman's method.
Chain of Cholinesterase (Equus caballus) (P81908 whole entry): as above
The next data set relates to SH-SY5Y. Description: Cytotoxicity against human SH-SY5Y cells assessed as decrease in cell viability after 48 hrs by MTT assay. The data set is classed as cell-based.
Data set [5] is described as follows: Effective permeability of the compound at 100 ug/ml after 16 hrs by PAMPA.
Data set [6] in a line: Half life in pH 6.5 fasted state simulated intestinal fluid. In kind it is ADME.
Data set [7] in a line: Half life in rat liver microsomes. The data set is classed as ADME, microsome. Background: Microsomes from liver hold many membrane-bound enzymes, among them those of drug oxidation.
The nature of data set [8]: Metabolic stability in human plasma assessed as compound remaining measured after 120 mins. In kind it is ADME, cell-free. Conditions: read-out: Stability.
The target of data set [9] is T1, Cholinesterase.
Description: Inhibition of horse serum BuChE using acetylthiocholine as substrate after 60 mins by FRET assay

T2 sequence (P22303 whole entry): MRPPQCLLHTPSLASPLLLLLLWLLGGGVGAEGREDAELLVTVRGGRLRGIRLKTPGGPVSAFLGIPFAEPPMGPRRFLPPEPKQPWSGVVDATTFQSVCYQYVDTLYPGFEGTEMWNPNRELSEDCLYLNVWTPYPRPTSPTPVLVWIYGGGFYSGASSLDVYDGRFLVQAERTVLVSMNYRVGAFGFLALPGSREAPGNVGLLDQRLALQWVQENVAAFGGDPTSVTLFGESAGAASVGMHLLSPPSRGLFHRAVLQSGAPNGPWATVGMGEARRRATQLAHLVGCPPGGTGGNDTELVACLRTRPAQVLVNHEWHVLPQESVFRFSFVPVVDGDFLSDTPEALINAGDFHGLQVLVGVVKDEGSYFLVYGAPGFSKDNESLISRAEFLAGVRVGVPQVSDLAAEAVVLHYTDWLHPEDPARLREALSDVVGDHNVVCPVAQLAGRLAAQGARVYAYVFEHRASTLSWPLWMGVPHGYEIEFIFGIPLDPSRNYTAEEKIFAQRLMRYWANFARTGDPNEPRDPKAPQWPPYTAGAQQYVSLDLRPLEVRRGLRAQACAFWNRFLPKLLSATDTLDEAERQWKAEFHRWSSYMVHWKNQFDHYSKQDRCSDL

At Cholinesterase [1], `C[C@@H](NC(=O)c1cc(C(=O)N[C@@H](Cc2ccccc2)[C@H](O)CNC2CC2)cc(N(C)S(C)(=O)=O)c1)c1ccccc1` returned an IC50 of 14.6 nM.
`COc1ccc2c(c1)C/C(=C/c1ccccc1-c1ccccc1)C2=O`: the inhibition result (on Acetylcholinesterase [2]; in data set [4]) was “Active” in each case. Besides, the IC50 is 29.8 nM at Acetylcholinesterase [3], 125 nM on Cholinesterase [1], more than 50000 nM in the data set with SH-SY5Y and 3310 nM on Cholinesterase [9]. In [5], this molecule registered an apparent permeability coefficient (Papp) at 16 h, 100 ug/ml of 26.6 ×10⁻⁶ cm/s. Also, the half-life in data set [6] was 9.85 h; in data set [7] it was 4.05 h. Moreover, in data set [8], the remaining at 2 h was determined as 98.6%.
With `CC(C)[N+](C)(CCOC(=O)C1c2ccccc2Oc2ccccc21)C(C)C` [PROPANTHELINE], in [8], the remaining at 2 h came out at 2.83%.
Turning to `COc1ccc(-c2ccccc2/C=C2/Cc3cc(OC)ccc3C2=O)cc1`, the inhibition result (at Acetylcholinesterase [2]; in [4]) was “Active” throughout. The 50% inhibitory concentration (IC50) at Acetylcholinesterase [3] was 21.2 nM; against Cholinesterase [1] it was 99.4 nM; with SH-SY5Y, more than 50000 nM; against Cholinesterase [9] it was 2150 nM. Further, in data set [5], the Papp at 16 h, 100 ug/ml is 26.2 ×10⁻⁶ cm/s. Moreover, the results for the half-life in data set [6] and in data set [7] were 8.57 h and 3.58 h, respectively. In [8], the remaining at 2 h was 97.5%.
`COc1ccc2c(c1)C/C(=C/c1ccccc1-c1ccc3ccccc3c1)C2=O`: the inhibition result (on Acetylcholinesterase [2]; in [4]) was “Active” in each case. The IC50 on Acetylcholinesterase [3] was 32.4 nM; against Cholinesterase [1], 101 nM; with SH-SY5Y it was more than 50000 nM; on Cholinesterase [9], 3970 nM. Moreover, in [5], the Papp at 16 h, 100 ug/ml came to 28.5 ×10⁻⁶ cm/s. For the same molecule, the half-life in [6] was 10.2 h; in data set [7] it was 4.65 h. Moreover, in [8], the remaining at 2 h is 99.2%.
In data set [6], `CC[C@H]1OC(=O)[C@H](C)[C@@H](O[C@H]2C[C@@](C)(OC)[C@@H](O)[C@H](C)O2)[C@H](C)[C@@H](O[C@@H]2O[C@H](C)C[C@H](N(C)C)[C@H]2O)[C@](C)(O)C[C@@H](C)C(=O)[C@H](C)[C@@H](O)[C@]1(C)O` [ERYTHROMYCIN] came in with a half-life of 8.25 h.
Regarding `COc1ccc2c(c1)C/C(=C/C1CCN(Cc3ccccc3)CC1)C2=O`, the half-maximal inhibitory concentration (IC50) came to 44.1 nM at Acetylcholinesterase [3] and 341 nM at Cholinesterase [1]. In addition, the inhibition result in [4] is “Active”.
With `COc1ccc2c(c1)C/C(=C/c1ccccc1-c1ccc3nc(N)ccc3c1)C2=O`, the inhibition result (at Acetylcholinesterase [2]; in data set [4]) was “Active” throughout. The IC50 was 14.7 nM on Acetylcholinesterase [3], 13.1 nM against Cholinesterase [1], more than 50000 nM with SH-SY5Y and 1780 nM at Cholinesterase [9]. In [5], this molecule yielded a Papp at 16 h, 100 ug/ml of 24.3 ×10⁻⁶ cm/s. Further, the half-life was 9.63 h in data set [6] and 3.78 h in [7]. The remaining at 2 h in data set [8] is 96.1%.
